Data on 15 molecules can be found in ChEMBL document CHEMBL3045062, “Potent in vitro and in vivo antitubercular activity of certain newly synthesized indophenazine 1,3,5-trisubstituted pyrazoline derivatives bearing benzofuran” (Med Chem Res, 2011).

Values after ≈ are worked out from the molar mass of the structure shown.

This assay has as its system Mycobacterium tuberculosis. Put plainly: Antitubercular activity against Isoniazid,rifampicin,gatifloxacin-resistant Mycobacterium tuberculosis after 60 days. The assay is classed as functional.

A word on the MIC50: it is the lowest concentration that inhibits either 50% of growth or 50% of the strains tested, depending on the study. Low readings indicate higher susceptibility, high ones lower susceptibility. As usually defined, the MIC90 is an inhibitory concentration at the 90% level, which refers to growth in some studies and to a panel of isolates in others. A high value points to weaker potency. With `O=C(Cn1c2ccccc2c2nc3ccccc3nc21)N1N=C(c2cc3cc(O)ccc3o2)CC1c1ccccc1O` (stereo not given), the MIC50 came to 10.3 µg/mL (≈ 18.7 µM) and the MIC90 came out at 12.6 µg/mL (≈ 22.7 µM).
On the same counts, the results for `COc1ccccc1C1CC(c2cc3cc(O)ccc3o2)=NN1C(=O)Cn1c2ccccc2c2nc3ccccc3nc21` (stereo not given) are 10.7 µg/mL (≈ 18.8 µM) and 13.6 µg/mL (≈ 24 µM).
Regarding `CN(C)c1ccc(C2CC(c3cc4cc(O)ccc4o3)=NN2C(=O)Cn2c3ccccc3c3nc4ccccc4nc32)cc1` (stereo not given), the MIC50 turned out to be 5 µg/mL (≈ 8.61 µM) and the MIC90 worked out at 8.98 µg/mL (≈ 15.5 µM).
On the same counts, the results for `CC(=O)c1ccccc1C1CC(c2cc3cc(O)ccc3o2)=NN1C(=O)Cn1c2ccccc2c2nc3ccccc3nc21` (stereo not given) are 9.56 µg/mL (≈ 16.5 µM) and 7.45 µg/mL (≈ 12.9 µM).
On the same counts, the results for `O=C(Cn1c2ccccc2c2nc3ccccc3nc21)N1N=C(c2cc3cc(O)ccc3o2)CC1c1cccc([N+](=O)[O-])c1` (stereo not given) are 1.2 µg/mL (≈ 2.06 µM) and 2 µg/mL (≈ 3.43 µM).
For `COc1ccc(C2CC(c3cc4cc(O)ccc4o3)=NN2C(=O)Cn2c3ccccc3c3nc4ccccc4nc32)c(O)c1` (stereo not given), the MIC50 is 7.8 µg/mL (≈ 13.4 µM) and the MIC90 worked out at 13.1 µg/mL (≈ 22.4 µM).
On the same counts, the results for `O=C(Cn1c2ccccc2c2nc3ccccc3nc21)N1N=C(c2cc3cc(O)ccc3o2)CC1c1ccc(O)cc1` (stereo not given) are 9.86 µg/mL (≈ 17.8 µM) and 11.2 µg/mL (≈ 20.3 µM).
For `O=C(Cn1c2ccccc2c2nc3ccccc3nc21)N1N=C(c2cc3cc(O)ccc3o2)CC1c1ccc(Cl)cc1` (stereo not given), in that order: 5.23 µg/mL (≈ 9.14 µM) and 8.66 µg/mL (≈ 15.1 µM).
As to `O=C(Cn1c2ccccc2c2nc3ccccc3nc21)N1N=C(c2cc3cc(O)ccc3o2)CC1c1ccccc1Cl` (stereo not given), the MIC50 was 4.68 µg/mL (≈ 8.18 µM) and the MIC90 was 8.61 µg/mL (≈ 15.1 µM).
For `O=C(Cn1c2ccccc2c2nc3ccccc3nc21)N1N=C(c2cc3cc(O)ccc3o2)CC1c1ccccc1[N+](=O)[O-]` (stereo not given), in that order: 3.24 µg/mL (≈ 5.56 µM) and 7.2 µg/mL (≈ 12.4 µM).
`COc1ccc(C2CC(c3cc4cc(O)ccc4o3)=NN2C(=O)Cn2c3ccccc3c3nc4ccccc4nc32)cc1` (stereo not given) returned an MIC50 of 11.5 µg/mL (≈ 20.3 µM) and an MIC90 of 15.4 µg/mL (≈ 27.1 µM).
With `O=C(Cn1c2ccccc2c2nc3ccccc3nc21)N1N=C(c2cc3cc(O)ccc3o2)CC1c1ccco1` (stereo not given), the MIC50 stood at 6.4 µg/mL (≈ 12.1 µM) and the MIC90 came to 9.78 µg/mL (≈ 18.5 µM).
For `O=C(Cn1c2ccccc2c2nc3ccccc3nc21)N1N=C(c2cc3cc(O)ccc3o2)CC1/C=C/c1ccccc1` (stereo not given), in that order: 5.6 µg/mL (≈ 9.94 µM) and 11.3 µg/mL (≈ 20.1 µM).
For `COc1c(N2CCNC(C)C2)c(F)cc2c(=O)c(C(=O)O)cn(C3CC3)c12` (stereo not given) [GATIFLOXACIN], in that order: 14.7 µg/mL (≈ 39.2 µM) and 28.5 µg/mL (≈ 75.8 µM).
On the same counts, the results for `CO[C@H]1/C=C/O[C@@]2(C)Oc3c(C)c(O)c4c(O)c(c(/C=N/N5CCN(C)CC5)c(O)c4c3C2=O)NC(=O)/C(C)=C\C=C\[C@H](C)[C@H](O)[C@@H](C)[C@@H](O)[C@@H](C)[C@H](OC(C)=O)[C@@H]1C` [RIFAMPIN] are 4.21 µg/mL (≈ 5.12 µM) and 7.37 µg/mL (≈ 8.96 µM).
